The text below walks through data of ChEMBL document CHEMBL3822364, “Synthesis, characterization and antimicrobial activity of novel Schiff base tethered boronate esters of 1,2-O-isopropylidene-α-d-xylofuranose” (2016).

The structures appear in SMILES notation. Calls of active or inactive are those of the source. The rule behind the calls is not given here.

One test has as its system Staphylococcus aureus. Description: Antibacterial activity against Staphylococcus aureus MTCC 3160 measured after 24 hrs by NCCL protocol based broth dilution method. It counts as functional.
Conditions: not given
In general terms: In broth dilution the organism is exposed to a series of concentrations in liquid medium.
Take `CC1(C)O[C@H]2O[C@@H]3COC(c4cccc(C=O)c4)O[C@@H]3[C@H]2O1` (some centres not stated): the MIC result was “inactive”.

Take `CC1(C)O[C@H]2O[C@@H]3COC(c4ccc(C=O)cc4)O[C@@H]3[C@H]2O1` (some centres not stated): the MIC result was “inactive”.

The test system of the next test is Salmonella typhi. Description: Antibacterial activity against Salmonella typhi assessed as zone of inhibition at 100 ug/well measured after 24 hrs by agar well diffusion method. It counts as functional, Salmonella enterica subsp. enterica serovar Typhi. To be noted: Salmonella enterica, read-out: DIZ. For orientation: In agar diffusion tests the substance spreads into inoculated agar from a disc or well.
In the case of `CC1(C)O[C@H]2O[C@@H]3COC(c4cccc(C=O)c4)O[C@@H]3[C@H]2O1` (some centres not stated), the zone of inhibition at 100 µg/disc was determined as 0 mm.

Regarding `CC1(C)O[C@H]2O[C@@H]3COC(c4ccc(C=O)cc4)O[C@@H]3[C@H]2O1` (some centres not stated), the zone of inhibition at 100 µg/disc came to 0 mm.

The test system of a further test is Streptococcus mutans. The test can be described thus: Antibacterial activity against Streptococcus mutans MTCC 497 assessed as zone of inhibition at 100 ug/well measured after 24 hrs by agar well diffusion method. It counts as functional. To be noted: MTCC 497, 24 h, read-out: DIZ.
For the molecule `CC1(C)O[C@H]2O[C@@H]3COC(c4cccc(C=O)c4)O[C@@H]3[C@H]2O1` (some centres not stated), the zone of inhibition at 100 µg/disc turned out to be 0 mm.

Take `CC1(C)O[C@H]2O[C@@H]3COC(c4ccc(C=O)cc4)O[C@@H]3[C@H]2O1` (some centres not stated): the zone of inhibition at 100 µg/disc was 0 mm.

Another test relates to Salmonella typhi. Description: Antibacterial activity against Salmonella typhi measured after 24 hrs by NCCL protocol based broth dilution method. The class given is functional. To be noted: Salmonella enterica subsp. enterica serovar Typhi.
Consider `CC1(C)O[C@H]2O[C@@H]3COC(c4cccc(C=O)c4)O[C@@H]3[C@H]2O1` (some centres not stated), for which the MIC entry was “inactive”.

Take `CC1(C)O[C@H]2O[C@@H]3COC(c4ccc(C=O)cc4)O[C@@H]3[C@H]2O1` (some centres not stated): the MIC entry was “inactive”.

Another test has as its system Salmonella paratyphi. The test can be described thus: Antibacterial activity against Salmonella paratyphi assessed as zone of inhibition at 100 ug/well measured after 24 hrs by agar well diffusion method. The class given is functional, Salmonella enterica subsp. enterica serovar Paratyphi A. Conditions: Salmonella enterica, read-out: DIZ.
As to `CC1(C)O[C@H]2O[C@@H]3COC(c4cccc(C=O)c4)O[C@@H]3[C@H]2O1` (some centres not stated), the zone of inhibition at 100 µg/disc was determined as 0 mm.

For `CC1(C)O[C@H]2O[C@@H]3COC(c4ccc(C=O)cc4)O[C@@H]3[C@H]2O1` (some centres not stated), the zone of inhibition at 100 µg/disc stood at 0 mm.

For a further test, the system named is Staphylococcus aureus. Description: Antibacterial activity against Staphylococcus aureus MTCC 3160 assessed as zone of inhibition at 100 ug/well measured after 24 hrs by agar well diffusion method. It counts as functional. Conditions: MTCC 3160, 24 h, read-out: DIZ.
For `CC1(C)O[C@H]2O[C@@H]3COC(c4cccc(C=O)c4)O[C@@H]3[C@H]2O1` (some centres not stated), the zone of inhibition at 100 µg/disc is 0 mm.

Regarding `CC1(C)O[C@H]2O[C@@H]3COC(c4ccc(C=O)cc4)O[C@@H]3[C@H]2O1` (some centres not stated), the zone of inhibition at 100 µg/disc was 0 mm.

The subject of another test is Micrococcus luteus. Description: Antibacterial activity against Micrococcus luteus MTCC 106 measured after 24 hrs by NCCL protocol based broth dilution method.
Conditions: not given
It counts as functional.
For the molecule `CC1(C)O[C@H]2O[C@@H]3COC(c4cccc(C=O)c4)O[C@@H]3[C@H]2O1` (some centres not stated), the MIC result was “inactive”.

As for `CC1(C)O[C@H]2O[C@@H]3COC(c4ccc(C=O)cc4)O[C@@H]3[C@H]2O1` (some centres not stated), the MIC entry is “inactive”.

The next test relates to Aspergillus fumigatus. Description: Antifungal activity against Aspergillus fumigatus MTCC 343 assessed as zone of inhibition at 100 ug/well measured after 48 hrs by agar well diffusion method. Conditions: MTCC 343, 48 h, read-out: DIZ. The class given is functional.
With `CC1(C)O[C@H]2O[C@@H]3COC(c4cccc(C=O)c4)O[C@@H]3[C@H]2O1` (some centres not stated), the zone of inhibition at 100 µg/disc is 0 mm.

With `CC1(C)O[C@H]2O[C@@H]3COC(c4ccc(C=O)cc4)O[C@@H]3[C@H]2O1` (some centres not stated), the zone of inhibition at 100 µg/disc was found to be 0 mm.

Another test has as its system Klebsiella pneumoniae. Description: Antibacterial activity against Klebsiella pneumoniae MTCC 3384 assessed as zone of inhibition at 100 ug/well measured after 24 hrs by agar well diffusion method. Conditions: MTCC 3384, 24 h, read-out: DIZ. It counts as functional.
As to `CC1(C)O[C@H]2O[C@@H]3COC(c4cccc(C=O)c4)O[C@@H]3[C@H]2O1` (some centres not stated), the zone of inhibition at 100 µg/disc amounted to 0 mm.

As to `CC1(C)O[C@H]2O[C@@H]3COC(c4ccc(C=O)cc4)O[C@@H]3[C@H]2O1` (some centres not stated), the zone of inhibition at 100 µg/disc was 0 mm.

A further test deals with Candida albicans. Description: Antifungal activity against Candida albicans MTCC 3017 assessed as zone of inhibition at 100 ug/well measured after 48 hrs by agar well diffusion method. The class given is functional. Conditions: MTCC 3017, 48 h, read-out: DIZ.
On to `CC1(C)O[C@H]2O[C@@H]3COC(c4cccc(C=O)c4)O[C@@H]3[C@H]2O1` (some centres not stated), for which the zone of inhibition at 100 µg/disc is 0 mm.

As for `CC1(C)O[C@H]2O[C@@H]3COC(c4ccc(C=O)cc4)O[C@@H]3[C@H]2O1` (some centres not stated), the zone of inhibition at 100 µg/disc was 0 mm.

For the next test, the system named is Candida albicans. The test can be described thus: Antifungal activity against Candida albicans MTCC 3017 measured after 48 hrs by NCCL protocol based broth dilution method.
Conditions: not given
The class given is functional.
Regarding `CC1(C)O[C@H]2O[C@@H]3COC(c4cccc(C=O)c4)O[C@@H]3[C@H]2O1` (some centres not stated), the MIC entry was “inactive”.

`CC1(C)O[C@H]2O[C@@H]3COC(c4ccc(C=O)cc4)O[C@@H]3[C@H]2O1` (some centres not stated): the MIC result is “inactive”.

The next test deals with Klebsiella pneumoniae. Description: Antibacterial activity against Klebsiella pneumoniae MTCC 3384 measured after 24 hrs by NCCL protocol based broth dilution method.
Conditions: not given
The class given is functional.
Turning to `CC1(C)O[C@H]2O[C@@H]3COC(c4cccc(C=O)c4)O[C@@H]3[C@H]2O1` (some centres not stated), the MIC result is “inactive”.

In the case of `CC1(C)O[C@H]2O[C@@H]3COC(c4ccc(C=O)cc4)O[C@@H]3[C@H]2O1` (some centres not stated), the MIC result is “inactive”.

The test system of the next test is Aspergillus fumigatus. The test can be described thus: Antifungal activity against Aspergillus fumigatus MTCC 343 measured after 48 hrs by NCCL protocol based broth dilution method. The class given is functional.
Conditions: not given
Take `CC1(C)O[C@H]2O[C@@H]3COC(c4cccc(C=O)c4)O[C@@H]3[C@H]2O1` (some centres not stated): the MIC result was “inactive”.

As to `CC1(C)O[C@H]2O[C@@H]3COC(c4ccc(C=O)cc4)O[C@@H]3[C@H]2O1` (some centres not stated), the MIC result was “inactive”.

The test system of a further test is Micrococcus luteus. The test can be described thus: Antibacterial activity against Micrococcus luteus MTCC 106 assessed as zone of inhibition at 100 ug/well measured after 24 hrs by agar well diffusion method. The class given is functional. Conditions: MTCC 106, 24 h, read-out: DIZ.
Consider `CC1(C)O[C@H]2O[C@@H]3COC(c4cccc(C=O)c4)O[C@@H]3[C@H]2O1` (some centres not stated), for which the zone of inhibition at 100 µg/disc is 0 mm.

On to `CC1(C)O[C@H]2O[C@@H]3COC(c4ccc(C=O)cc4)O[C@@H]3[C@H]2O1` (some centres not stated), for which the zone of inhibition at 100 µg/disc was 0 mm.

A further test concerns Salmonella paratyphi. The test can be described thus: Antibacterial activity against Salmonella paratyphi measured after 24 hrs by NCCL protocol based broth dilution method. The class given is functional. To be noted: Salmonella enterica subsp. enterica serovar Paratyphi A.
As to `CC1(C)O[C@H]2O[C@@H]3COC(c4cccc(C=O)c4)O[C@@H]3[C@H]2O1` (some centres not stated), the MIC entry was “inactive”.

Take `CC1(C)O[C@H]2O[C@@H]3COC(c4ccc(C=O)cc4)O[C@@H]3[C@H]2O1` (some centres not stated): the MIC result is “inactive”.

For a further test, the system named is Streptococcus mutans. The test can be described thus: Antibacterial activity against Streptococcus mutans MTCC 497 measured after 24 hrs by NCCL protocol based broth dilution method. It counts as functional.
Conditions: not given
Consider `CC1(C)O[C@H]2O[C@@H]3COC(c4cccc(C=O)c4)O[C@@H]3[C@H]2O1` (some centres not stated), for which the MIC entry is “inactive”.

For `CC1(C)O[C@H]2O[C@@H]3COC(c4ccc(C=O)cc4)O[C@@H]3[C@H]2O1` (some centres not stated), the MIC result was “inactive”.
